# According to patent publication US9606132B2, “Methods of monitoring adherence to lurasidone therapy” (Ameritox, Ltd., priority 2013, dated 2017):
# Where “and” joins values, the source holds several entries; their conditions need not be identical. Identical values can stand only once.
# Tests used:
# [1] = cited from earlier work
# [2] = cited from earlier work; remark: listed apart in the source
# [3] = cited from earlier work; remark: listed apart in the source
# CYP3A4 = biological target: T1, CYP3A4 (Homo sapiens, UniProt P08684); settings: liver; cited from earlier work
# T1 construct: host or cells: liver (in vivo metabolism, general statement)
# T1 sequence (P08684 whole entry): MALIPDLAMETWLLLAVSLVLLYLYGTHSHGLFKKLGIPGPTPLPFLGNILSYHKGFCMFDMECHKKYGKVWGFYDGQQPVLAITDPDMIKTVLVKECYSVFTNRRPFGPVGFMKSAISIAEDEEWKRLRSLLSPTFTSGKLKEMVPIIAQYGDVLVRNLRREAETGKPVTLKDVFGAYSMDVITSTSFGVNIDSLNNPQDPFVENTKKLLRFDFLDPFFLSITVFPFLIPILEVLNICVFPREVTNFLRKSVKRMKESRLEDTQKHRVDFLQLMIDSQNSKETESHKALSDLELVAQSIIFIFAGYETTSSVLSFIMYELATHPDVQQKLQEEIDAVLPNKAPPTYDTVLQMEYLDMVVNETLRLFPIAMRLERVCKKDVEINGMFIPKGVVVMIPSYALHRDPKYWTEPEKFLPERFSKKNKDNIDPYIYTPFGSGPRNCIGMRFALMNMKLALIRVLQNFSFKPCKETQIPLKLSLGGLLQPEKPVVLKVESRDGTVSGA
# [4] = Qualitative identification of lurasidone and metabolites in urine by Q-ToF MS/MS (Example 1); settings: chronic lurasidone doses; for Lurasidone Metabolite Distribution in Human Urine (qualitative identification): individual subjects
# Procedure: Urine samples of normally metabolizing human subjects who were known to be taking chronic doses of lurasidone were tested for the presence of lurasidone and eleven metabolites (excluding isomeric metabolites). Each patient sample was analyzed twice to ensure accuracy. Due to the high probability for false identification of isobars, MS/MS data was collected and selectively looked at to add confidence to the identification.
# [5] = Quantitative urine testing of patients prescribed Latuda for compliance over 5 days (Examples 2-7)
# Procedure: The urine of 20 patients who were prescribed 20 mg of Latuda® (lurasidone) was tested for compliance over 5 days (Table 3).
# Samples that were deemed invalid based on pH and/or specific gravity (n=7) were not included in calculations. Any drug/metabolite concentration that was less than the LOD/LOQ (5 ng/mL) as noted in Table 3 was also excluded from the calculations.
# The urine of 12 patients who were prescribed 40 mg of Latuda® (lurasidone) was tested for compliance over 5 days (Table 5).
# Samples that were deemed invalid based on pH and/or specific gravity (n=3) were not included in calculations. Any drug/metabolite concentration that was less than the LOD/LOQ (5 ng/mL) as noted in Table 5 was also excluded from the calculations.
# The urine of 2 patients who was prescribed 60 mg of Latuda® (lurasidone) was tested for compliance over 5 days (Table 7).
# The urine of 15 patients who were prescribed 80 mg of Latuda® (lurasidone) was tested for compliance over 5 days (Table 9).
# Any drug/metabolite concentration that was less than the LOD/LOQ (5 ng/mL) as noted in Table 5 was also excluded from the calculations.
# The urine of 1 patient who was prescribed 100 mg of Latuda® (lurasidone) was tested for compliance over 5 days (Table 11).
# The urine of 6 patients who were prescribed 120 mg of Latuda® (lurasidone) was tested for compliance over 5 days (Table 13).
# Samples that were deemed invalid based on pH and/or specific gravity (n=2) were not included in calculations.
# [6] = 20 mg/day, n 53 valid samples, values below LOD/LOQ excluded
# [7] = 40 mg/day, n 33 valid samples, values below LOD/LOQ excluded
# [8] = 80 mg/day, n 45, values below LOD/LOQ excluded
substance,measurement,setting,value
Lurasidone,log P,[1],5.9
same,pKa,[1],7.6
same,time to steady state serum concentrations,[2]; days of dosing,7 days
same,mean elimination half-life,[2]; in vivo,18 h
same,excreted in the feces,[3]; excretion studies in humans,80%
same,recovered in the urine,[3]; excretion studies in humans,9%
same,share of total radioactivity in plasma,"[3]; plasma, post oral dosing",12%
same,metabolizing enzyme,CYP3A4,metabolized in the liver primarily by CYP3A4
same,detectability in human urine (Example 1),[4],detected in the majority of the samples
same,Lurasidone Metabolite Distribution in Human Urine (qualitative identification),[4]; Run 1,✓* (5×) and ✓^ (4×)
same,Lurasidone Metabolite Distribution in Human Urine (qualitative identification),[4]; Run 2,✓^ (4×) and ✓* (5×)
same,urine concentration,"[5]; 20 mg/day Latuda, Day 1, individual subjects, ** = below LOD/LOQ 5 ng/mL (negative)",9.7 ng/mL and 12.7 ng/mL and 9.0 ng/mL and 33.1 ng/mL and 24.6 ng/mL and 6.9 ng/mL and 6.0 ng/mL and 4.4* ** ng/mL and 9.1 ng/mL (2×) and 10.1 ng/mL and 5.7 ng/mL and 7.8 ng/mL and 12.9 ng/mL and 25.8 ng/mL and 13.8 ng/mL and 3.2** ng/mL and 83.1 ng/mL and 33.4 ng/mL and 12.0 ng/mL
same,urine concentration,"[5]; 20 mg/day Latuda, Day 4, individual subjects, ** = below LOD/LOQ 5 ng/mL (negative)",149.0 ng/mL and 14.3 ng/mL and 18.9 ng/mL and 4.8** ng/mL and 14.0 ng/mL and 5.7 ng/mL and 4.7* ** ng/mL and 7.0 ng/mL (2×) and 2.9* ** ng/mL and 31.3 ng/mL and 13.0 ng/mL and 7.3 ng/mL and 24.3 ng/mL and 4.3** ng/mL and 12.5 ng/mL and 17.5 ng/mL and 5.8 ng/mL and 29.1 ng/mL and 8.0 ng/mL
same,urine concentration,"[5]; 20 mg/day Latuda, Day 5, individual subjects, ** = below LOD/LOQ 5 ng/mL (negative)",9.6 ng/mL and 8.8 ng/mL and 13.2 ng/mL and 24.4 ng/mL and 26.2 ng/mL and 20.3 ng/mL and 6.5 ng/mL and 6.6 ng/mL and 6.0 ng/mL and 18.6 ng/mL and 12.1 ng/mL and 13.6 ng/mL and 5.4 ng/mL and 10.2 ng/mL and 11.0 ng/mL and 12.4 ng/mL and 5.2 ng/mL and 4.7** ng/mL and 23.2 ng/mL and 10.4 ng/mL
same,"urine concentration, Maximum Value","[5]; 20 mg/day, n 53 valid samples",149.00 ng/mL
same,"urine concentration, Median Value","[5]; 20 mg/day, n 53 valid samples",12.45 ng/mL
same,"urine concentration, Average",[5]; [6],18.38 ng/mL
same,"urine concentration, Minimum Value",[5]; [6],5.70 ng/mL
same,urine concentration,"[5]; 40 mg/day Latuda, Day 1, individual subjects, ** = below LOD/LOQ 5 ng/mL (negative)",30.5 ng/mL and 31.9 ng/mL and 63.9 ng/mL and 25.8 ng/mL and 4.4** ng/mL and 30.6 ng/mL and 9.8 ng/mL and 112.1 ng/mL and 14.0 ng/mL and 11.8 ng/mL and 129.1 ng/mL and 77.1 ng/mL
same,urine concentration,"[5]; 40 mg/day Latuda, Day 4, individual subjects, ** = below LOD/LOQ 5 ng/mL (negative)",21.7 ng/mL and 25.6 ng/mL and 70.7 ng/mL and 69.3 ng/mL and 26.4 ng/mL and 1.0** ng/mL and 41.3 ng/mL and 14.5 ng/mL and 54.0 ng/mL and 32.8 ng/mL and 12.8 ng/mL and 38.0 ng/mL
same,urine concentration,"[5]; 40 mg/day Latuda, Day 5, individual subjects, ** = below LOD/LOQ 5 ng/mL (negative)",37.9 ng/mL (2×) and 60.0 ng/mL and 33.4 ng/mL and 40.1 ng/mL and 1.3** ng/mL and 35.8 ng/mL and 7.2 ng/mL and 192.1 ng/mL and 11.3 ng/mL and 7.8 ng/mL and 56.4 ng/mL
same,"urine concentration, Maximum Value","[5]; 40 mg/day, n 33 valid samples",192.10 ng/mL
same,"urine concentration, Median Value","[5]; 40 mg/day, n 33 valid samples",33.10 ng/mL
same,"urine concentration, Average",[5]; [7],44.23 ng/mL
same,"urine concentration, Minimum Value",[5]; [7],7.20 ng/mL
same,urine concentration,"[5]; 60 mg/day Latuda, Day 1, individual subjects",16.3 ng/mL
same,urine concentration,"[5]; 60 mg/day Latuda, Day 4, individual subjects",25.3 ng/mL and 36.8 ng/mL
same,urine concentration,"[5]; 60 mg/day Latuda, Day 5, individual subjects",50.5 ng/mL
same,"urine concentration, Average","[5]; 60 mg/day, n 6",30.30 ng/mL
same,"urine concentration, Maximum Value","[5]; 60 mg/day, n 6",50.50 ng/mL
same,"urine concentration, Median Value","[5]; 60 mg/day, n 6",31.05 ng/mL
same,"urine concentration, Minimum Value","[5]; 60 mg/day, n 6",15.60 ng/mL
same,"urine concentration, Maximum Value","[5]; 80 mg/day, n 45",556.60 ng/mL
same,"urine concentration, Median Value","[5]; 80 mg/day, n 45",70.00 ng/mL
same,"urine concentration, Average",[5]; [8],120.26 ng/mL
same,"urine concentration, Minimum Value",[5]; [8],10.10 ng/mL
same,"urine concentration, Average","[5]; 100 mg/day, n 3",73.97 ng/mL
same,"urine concentration, Maximum Value","[5]; 100 mg/day, n 3",94.90 ng/mL
same,"urine concentration, Median Value","[5]; 100 mg/day, n 3",64.50 ng/mL
same,"urine concentration, Minimum Value","[5]; 100 mg/day, n 3",62.50 ng/mL
same,"urine concentration, Average","[5]; 120 mg/day, n 16 valid samples",95.42 ng/mL
same,"urine concentration, Maximum Value","[5]; 120 mg/day, n 16 valid samples",260.10 ng/mL
same,"urine concentration, Median Value","[5]; 120 mg/day, n 16 valid samples",73.60 ng/mL
same,"urine concentration, Minimum Value","[5]; 120 mg/day, n 16 valid samples",12.40 ng/mL
same,concentration in urine,"[5]; patient prescribed 80 mg/day Latuda, subject II, day 1",147.1 ng/mL
same,concentration in urine,"[5]; patient prescribed 80 mg/day Latuda, subject II, day 4",144.8 ng/mL
same,concentration in urine,"[5]; patient prescribed 80 mg/day Latuda, subject II, day 5",112.7 ng/mL
same,concentration in urine,"[5]; patient prescribed 80 mg/day Latuda, subject eleven, day 1",556.6 ng/mL
same,concentration in urine,"[5]; patient prescribed 80 mg/day Latuda, subject eleven, day 4",503.8 ng/mL
same,concentration in urine,"[5]; patient prescribed 80 mg/day Latuda, subject eleven, day 5",264.0 ng/mL
same,concentration in urine,"[5]; patient prescribed 80 mg/day Latuda, subject fifteen, day 1",138.5 ng/mL
same,concentration in urine,"[5]; patient prescribed 80 mg/day Latuda, subject fifteen, day 4",83.8 ng/mL
same,concentration in urine,"[5]; patient prescribed 80 mg/day Latuda, subject fifteen, day 5",67.6 ng/mL
same,concentration in urine,"[5]; patient prescribed 80 mg/day Latuda, subject five, day 1",57.3 ng/mL
same,concentration in urine,"[5]; patient prescribed 80 mg/day Latuda, subject five, day 4",69.6 ng/mL
same,concentration in urine,"[5]; patient prescribed 80 mg/day Latuda, subject five, day 5",100.6 ng/mL
same,concentration in urine,"[5]; patient prescribed 80 mg/day Latuda, subject four, day 1",175.2 ng/mL
same,concentration in urine,"[5]; patient prescribed 80 mg/day Latuda, subject four, day 4",96.4 ng/mL
same,concentration in urine,"[5]; patient prescribed 80 mg/day Latuda, subject four, day 5",116.3 ng/mL
same,concentration in urine,"[5]; patient prescribed 80 mg/day Latuda, subject nine, day 1",52.6 ng/mL
same,concentration in urine,"[5]; patient prescribed 80 mg/day Latuda, subject nine, day 4",43.7 ng/mL
same,concentration in urine,"[5]; patient prescribed 80 mg/day Latuda, subject nine, day 5",38.9 ng/mL
same,concentration in urine,"[5]; patient prescribed 80 mg/day Latuda, subject nineteen, day 1",210.7 ng/mL
same,concentration in urine,"[5]; patient prescribed 80 mg/day Latuda, subject nineteen, day 4",70.4 ng/mL
same,concentration in urine,"[5]; patient prescribed 80 mg/day Latuda, subject nineteen, day 5",16.1 ng/mL
same,concentration in urine,"[5]; patient prescribed 80 mg/day Latuda, subject one, day 1, values marked ** below LOD/LOQ of 5 ng/mL = negative result, * ion ratio criteria not met",4.8** ng/mL
same,concentration in urine,"[5]; patient prescribed 80 mg/day Latuda, subject one, day 4",52.0 ng/mL
same,concentration in urine,"[5]; patient prescribed 80 mg/day Latuda, subject one, day 5",22.9 ng/mL
same,concentration in urine,"[5]; patient prescribed 80 mg/day Latuda, subject seventeen, day 1",152.8 ng/mL
same,concentration in urine,"[5]; patient prescribed 80 mg/day Latuda, subject seventeen, day 4",83.3 ng/mL
same,concentration in urine,"[5]; patient prescribed 80 mg/day Latuda, subject seventeen, day 5",72.4 ng/mL
same,concentration in urine,"[5]; patient prescribed 80 mg/day Latuda, subject sixteen, day 1",10.1 ng/mL
same,concentration in urine,"[5]; patient prescribed 80 mg/day Latuda, subject sixteen, day 4",14.5 ng/mL
same,concentration in urine,"[5]; patient prescribed 80 mg/day Latuda, subject sixteen, day 5",41.0 ng/mL
same,concentration in urine,"[5]; patient prescribed 80 mg/day Latuda, subject ten, day 1",40.5 ng/mL
same,concentration in urine,"[5]; patient prescribed 80 mg/day Latuda, subject ten, day 4",162.5 ng/mL
same,concentration in urine,"[5]; patient prescribed 80 mg/day Latuda, subject ten, day 5",48.3 ng/mL
same,concentration in urine,"[5]; patient prescribed 80 mg/day Latuda, subject thirteen, day 1",145.2 ng/mL
same,concentration in urine,"[5]; patient prescribed 80 mg/day Latuda, subject thirteen, day 4",298.3 ng/mL
same,concentration in urine,"[5]; patient prescribed 80 mg/day Latuda, subject thirteen, day 5",539.5 ng/mL
same,concentration in urine,"[5]; patient prescribed 80 mg/day Latuda, subject three, day 1",59.5 ng/mL
same,concentration in urine,"[5]; patient prescribed 80 mg/day Latuda, subject three, day 4",35.9 ng/mL
same,concentration in urine,"[5]; patient prescribed 80 mg/day Latuda, subject three, day 5",69.5 ng/mL
same,concentration in urine,"[5]; patient prescribed 80 mg/day Latuda, subject twelve, day 1, values marked ** below LOD/LOQ of 5 ng/mL = negative result",0.0** ng/mL
same,concentration in urine,"[5]; patient prescribed 80 mg/day Latuda, subject twelve, day 4",32.9 ng/mL
same,concentration in urine,"[5]; patient prescribed 80 mg/day Latuda, subject twelve, day 5",43.5 ng/mL
same,concentration in urine,"[5]; patient prescribed 80 mg/day Latuda, subject two, day 1",23.0 ng/mL
same,concentration in urine,"[5]; patient prescribed 80 mg/day Latuda, subject two, day 4, values marked ** below LOD/LOQ of 5 ng/mL = negative result",0.1** ng/mL
same,concentration in urine,"[5]; patient prescribed 80 mg/day Latuda, subject two, day 5",36.7 ng/mL
same,concentration in urine,"[5]; patient prescribed 120 mg/day Latuda, subject eight, day 1",148.7 ng/mL
same,concentration in urine,"[5]; patient prescribed 120 mg/day Latuda, subject eight, day 4",260.1 ng/mL
same,concentration in urine,"[5]; patient prescribed 120 mg/day Latuda, subject eight, day 5, specimen validity (creatinine, specific gravity) not acceptable",57.2 ng/mL
same,concentration in urine,"[5]; patient prescribed 120 mg/day Latuda, subject eighteen, day 1",23.4 ng/mL
same,concentration in urine,"[5]; patient prescribed 120 mg/day Latuda, subject eighteen, day 4",27.5 ng/mL
same,concentration in urine,"[5]; patient prescribed 120 mg/day Latuda, subject eighteen, day 5",12.4 ng/mL
same,concentration in urine,"[5]; patient prescribed 120 mg/day Latuda, subject fourteen, day 1",102.7 ng/mL
same,concentration in urine,"[5]; patient prescribed 120 mg/day Latuda, subject fourteen, day 4",87.3 ng/mL
same,concentration in urine,"[5]; patient prescribed 120 mg/day Latuda, subject fourteen, day 5",59.1 ng/mL
same,concentration in urine,"[5]; patient prescribed 120 mg/day Latuda, subject seven, day 1",83.9 ng/mL
same,concentration in urine,"[5]; patient prescribed 120 mg/day Latuda, subject seven, day 4",46.4 ng/mL
same,concentration in urine,"[5]; patient prescribed 120 mg/day Latuda, subject seven, day 5",63.3 ng/mL
same,concentration in urine,"[5]; patient prescribed 120 mg/day Latuda, subject six, day 1, specimen validity (creatinine) not acceptable",21.7 ng/mL
same,concentration in urine,"[5]; patient prescribed 120 mg/day Latuda, subject six, day 4, specimen validity (specific gravity) not acceptable",23.7 ng/mL
same,concentration in urine,"[5]; patient prescribed 120 mg/day Latuda, subject six, day 5",61.6 ng/mL
same,concentration in urine,"[5]; patient prescribed 120 mg/day Latuda, subject twenty, day 1",126.2 ng/mL
same,concentration in urine,"[5]; patient prescribed 120 mg/day Latuda, subject twenty, day 4",150.7 ng/mL
same,concentration in urine,"[5]; patient prescribed 120 mg/day Latuda, subject twenty, day 5",251.7 ng/mL
